Data: PMC2528936, “Snake Cathelicidin from Bungarus fasciatus Is a Potent Peptide Antibiotics” (PLoS ONE, 2008)
In brackets after ≈: the same amount, converted by molar mass. Like-named read-outs stand apart in the source and are kept apart here. Where no end group is shown, it is not given here.

Legend:
[1] = system: Acinetobacter calcoaceticus; assay: microbe, parasite or virus in culture
Protocol: (§1) Antimicrobial activities of cathelicidin-BF and cathelicidin-BF15 ([…]) were tested according to our previous methods [39]–[42]. […] The details were provided in the Materials and Methods S1.
(§2) Standard and clinically isolated microorganism strains were used for antimicrobial assays. Bacteria were first grown in LB (Luria-Bertani) broth to an OD600 nm of 0.8. A 10 µl aliquot of the bacteria was then taken and added to 8 ml of fresh LB broth with 0.7% agar and poured over a 90 mm Petri dish containing 25 ml of 1.5% agar in LB broth. After the top agar hardened, a 20 µl aliquot of the test sample filtered on a 0.22 µm Millipore filter was dropped onto the surface of the top agar and completely dried before being incubated overnight at 37 °C. If the sample examined had antimicrobial activity, a clear zone would be formed on the surface of the top agar representing inhibition of bacterial growth. Minimal inhibitory concentration (MIC) was determined in liquid LB medium by incubating the bacteria in LB broth with variable amounts of the sample tested. The MIC at which no visible growth occurred was recorded. In the assays of anti-fungi activity, for strains of Aspergillus terreus, A. niculans, and Chaetomium globosum, the fungal spore concentration was first counted under a microscope. The fungi with an initial concentration of 10^5 spores/ml were cultured with variable amounts of the sample tested in yeast extract-peptone-dextrose broth.

[2] = system: Bacillus cereus; assay: microbe, parasite or virus in culture
Protocol: as §1, §2

[3] = system: Bacillus pumilus; assay: microbe, parasite or virus in culture
Protocol: as §1, §2

[4] = system: Bacillus subtilis; assay: microbe, parasite or virus in culture
Protocol: as §1, §2

[5] = system: Candida albicans ATCC2002; assay: microbe, parasite or virus in culture; settings: Candida albicans
Protocol: as §1, §2

[6] = system: Escherichia coliATCC25922; assay: microbe, parasite or virus in culture
Protocol: as §1, §2

[7] = system: Pseudomonas aeruginosa ATCC27853; assay: microbe, parasite or virus in culture
Protocol: as §1, §2

[8] = system: Staphylococcus aureus ATCC2592; assay: microbe, parasite or virus in culture
Protocol: as §1, §2

[9] = system: Aspergillus niculans; settings: saprophytic fungus; 10^5 spores/ml, yeast extract-peptone-dextrose broth; mean of three independent experiments in duplicates; ND = no detectable activity
Protocol: as §1, §2

[10] = system: Aspergillus terreus GIM3.34; settings: saprophytic fungus; 10^5 spores/ml, yeast extract-peptone-dextrose broth; mean of three independent experiments in duplicates; ND = no detectable activity
Protocol: as §1, §2

[11] = system: Chaetomium globosum; settings: saprophytic fungus; 10^5 spores/ml, yeast extract-peptone-dextrose broth; mean of three independent experiments in duplicates; ND = no detectable activity
Protocol: as §1, §2

[12] = system: K. pneumoniae standard strain; assay: MIC determination, standard strain; format: cell-based; settings: Klebsiella pneumoniae
Protocol: as §1
as §2, with “The fungi with an initial concentration of 10^5 spores/ml were cultured with variable amounts of the sample tested in yeast extract-peptone-dextrose broth.” left out

[13] = system: E. coli 08031017 (IS, DR); settings: clinically isolated strain, drug resistance for ampicillin and benzylpenicillin; liquid LB broth; mean of three independent experiments in duplicates; ND = no detectable activity
Protocol: as §1, §2

[14] = system: E. coli 08032813 (IS, DR); settings: clinically isolated strain, drug resistance for ampicillin and benzylpenicillin; liquid LB broth; mean of three independent experiments in duplicates; ND = no detectable activity
Protocol: as §1, §2

[15] = system: E. coli 08040722 (IS, DR); settings: clinically isolated strain, drug resistance for ampicillin and benzylpenicillin; liquid LB broth; mean of three independent experiments in duplicates; ND = no detectable activity
Protocol: as §1, §2

[16] = system: E. coli 08040726 (IS, DR); settings: clinically isolated strain, drug resistance for ampicillin and benzylpenicillin; liquid LB broth; mean of three independent experiments in duplicates; ND = no detectable activity
Protocol: as §1, §2

[17] = system: E. coli 08A852 (IS, DR); settings: clinically isolated strain, drug resistance for ampicillin and benzylpenicillin; liquid LB broth; mean of three independent experiments in duplicates; ND = no detectable activity
Protocol: as §1, §2

[18] = system: E. coli 08A866(IS, DR); settings: clinically isolated strain, drug resistance for ampicillin and benzylpenicillin; liquid LB broth; mean of three independent experiments in duplicates; ND = no detectable activity
Protocol: as §1, §2

[19] = system: E. coli; settings: for most of E. coli (standard and clinically isolated strains)
Protocol: as §1, §2

[20] = system: Enterococcus faecium (IS, DR); settings: clinically isolated strain, drug resistance for ampicillin and benzylpenicillin; liquid LB broth; mean of three independent experiments in duplicates; ND = no detectable activity
Protocol: as §1, §2

[21] = system: K. pneumoniae 08031012 (IS, DR); settings: clinically isolated strain, drug resistance for ampicillin and benzylpenicillin; liquid LB broth; mean of three independent experiments in duplicates; ND = no detectable activity
Protocol: as §1, §2

[22] = system: K. pneumoniae 08040202 (IS, DR); settings: clinically isolated strain, drug resistance for ampicillin and benzylpenicillin; liquid LB broth; mean of three independent experiments in duplicates; ND = no detectable activity
Protocol: as §1, §2

[23] = system: K. pneumoniae 08040724 (IS, DR); settings: clinically isolated strain, drug resistance for ampicillin and benzylpenicillin; liquid LB broth; mean of three independent experiments in duplicates; ND = no detectable activity
Protocol: as §1, §2

[24] = system: Klebsiella pneumoniae (IS, DR); settings: clinically isolated strain, drug resistance for ampicillin and benzylpenicillin; liquid LB broth; mean of three independent experiments in duplicates; ND = no detectable activity
Protocol: as §1, §2

[25] = system: P. aeruginosa (IS, DR); settings: clinically isolated strain, drug resistance for ampicillin and benzylpenicillin; liquid LB broth; mean of three independent experiments in duplicates; ND = no detectable activity
Protocol: as §1, §2

[26] = system: P.aeruginosa 08031014(IS, DR); settings: clinically isolated strain, drug resistance for ampicillin and benzylpenicillin; liquid LB broth; mean of three independent experiments in duplicates; ND = no detectable activity
Protocol: as §1, §2

[27] = system: P.aeruginosa 08031205(IS, DR); settings: clinically isolated strain, drug resistance for ampicillin and benzylpenicillin; liquid LB broth; mean of three independent experiments in duplicates; ND = no detectable activity
Protocol: as §1, §2

[28] = system: Pseudomonas luteola; settings: liquid LB broth, no visible growth; mean of three independent experiments in duplicates; ND = no detectable activity
Protocol: as §1, §2

[29] = system: S. aureus 08031002 (IS, DR); settings: clinically isolated strain, drug resistance for ampicillin and benzylpenicillin; liquid LB broth; mean of three independent experiments in duplicates; ND = no detectable activity
Protocol: as §1, §2

[30] = system: S. aureus 08031013 (IS, DR); settings: clinically isolated strain, drug resistance for ampicillin and benzylpenicillin; liquid LB broth; mean of three independent experiments in duplicates; ND = no detectable activity
Protocol: as §1, §2

[31] = system: S. aureus 08032706 (IS, DR); settings: clinically isolated strain, drug resistance for ampicillin and benzylpenicillin; liquid LB broth; mean of three independent experiments in duplicates; ND = no detectable activity
Protocol: as §1, §2

[32] = system: S. aureus 08032712 (IS, DR); settings: clinically isolated strain, drug resistance for ampicillin and benzylpenicillin; liquid LB broth; mean of three independent experiments in duplicates; ND = no detectable activity
Protocol: as §1, §2

[33] = system: S. aureus 08032810 (IS, DR); settings: clinically isolated strain, drug resistance for ampicillin and benzylpenicillin; liquid LB broth; mean of three independent experiments in duplicates; ND = no detectable activity
Protocol: as §1, §2

[34] = system: S. aureus 08A865 (IS, DR); settings: clinically isolated strain, drug resistance for ampicillin and benzylpenicillin; liquid LB broth; mean of three independent experiments in duplicates; ND = no detectable activity
Protocol: as §1, §2

[35] = system: S. aureus 08A875 (IS, DR); settings: clinically isolated strain, drug resistance for ampicillin and benzylpenicillin; liquid LB broth; mean of three independent experiments in duplicates; ND = no detectable activity
Protocol: as §1, §2

[36] = system: Sacharibacillus kuerlensis; settings: liquid LB broth, no visible growth; mean of three independent experiments in duplicates; ND = no detectable activity
Protocol: as §1, §2

[37] = system: Serratia marcescens MA; settings: liquid LB broth, no visible growth; mean of three independent experiments in duplicates; ND = no detectable activity
Protocol: as §1, §2

[38] = system: Serratia marcescens SA; settings: liquid LB broth, no visible growth; mean of three independent experiments in duplicates; ND = no detectable activity
Protocol: as §1, §2

[39] = system: Sphingobacterium siyangense; settings: liquid LB broth, no visible growth; mean of three independent experiments in duplicates; ND = no detectable activity
Protocol: as §1, §2

[40] = system: S. aureus ATCC25923; assay: MIC determination; format: cell-based, Staphylococcus aureus; settings: liquid LB broth, no visible growth; mean of three independent experiments in duplicates; ND = no detectable activity
[41] = system: Salmonella typhi (IS, DR); assay: MIC determination; format: cell-based; settings: clinically isolated strain, drug resistance for ampicillin and benzylpenicillin; liquid LB broth; mean of three independent experiments in duplicates; ND = no detectable activity
[42] = system: human liver tumor cell (HepG2); settings: up to 400 µg/ml, data not shown
Protocol: (§3) Cytotoxicity and serum stability were measured according the methods described by Mygind et al. The details were provided in the Materials and Methods S1.
(§4) Hemolysis assays were undertaken using human red blood cells in liquid medium as our previous reoprts. Serial dilutions of the peptide were used, and after incubation at 37 °C for 30 min, the cells were centrifuged and the absorbance in the supernatant was measured at 540 nm. Maximum hemolysis was determined by adding 1% Triton X-100 to a sample of cells. Cytotoxicity was measured according the methods described by Mygind et al, using mouse macrophage (RAW264.7) and tumor cell (HepG2). Serum stability was checked by incubating 100 µg/ml cathelicidin-BF with 90% fresh normal human serum at 37 °C for 0, 1, 2, 3, 6, and 24 hours. Residual antimicrobial activities were measured by performing radial diffusion assays with E. coli 08A866 as described by Mygind et al.

[43] = system: mouse macrophage (RAW264.7); settings: up to 400 µg/ml, data not shown
Protocol: as §3, §4

[44] = Serum stability, residual antimicrobial activity; format: in vitro ADME; settings: 100 µg/ml peptide, 90% fresh normal human serum, 37°C, 0-24 hours; residual activity against E. coli 08A866 by radial diffusion assay
Protocol: For cathelicidin-BF, antimicrobial activities against E. coli 08A866 could not be detected after 3 h-incubation, while cathelicidin-BF15 could keep its antimicrobial activity up to 10 h in 90% fresh normal human serum.

[45] = liquid LB broth, no visible growth, mean of three independent experiments in duplicates, ND = no detectable activity
[46] = standard strain, liquid LB broth, no visible growth, mean of three independent experiments in duplicates, ND = no detectable activity

Molecule: CC1(C)S[C@@H]2[C@H](NC(=O)Cc3ccccc3)C(=O)N2[C@H]1C(=O)O [benzylpenicillin]
- MIC ([1]; Acinetobacter calcoaceticus): 37.5 µg/mL (≈ 112 µM)
- MIC ([2]; Bacillus cereus): 150 µg/mL (≈ 449 µM)
- MIC ([3]; Bacillus pumilus): 0.015 µg/mL (≈ 0.0449 µM)
- MIC ([4]; Bacillus subtilis): 0.004 µg/mL (≈ 0.012 µM)
- MIC [5]: 0.03 µg/mL (≈ 0.0897 µM)
- MIC ([6]; Escherichia, COLIATCC25922): 37.5 µg/mL (≈ 112 µM)
- MIC ([7]; Pseudomonas aeruginosa, ATCC27853): 18.7 µg/mL (≈ 55.9 µM)
- MIC ([8]; Staphylococcus aureus, ATCC2592): 0.03 µg/mL (≈ 0.0897 µM)
- MIC [9]: no effect
- MIC [10]: no effect
- MIC [11]: no effect
- MIC [12]: 18.7 µg/mL (≈ 55.9 µM)

Molecule: KFFRKLKKSVKKRAKEFFKKPRVIGVSIPF [cathelicidin-BF]
- MIC [1, 45]: 2.3 µg/mL
- MIC [2, 45]: 1.2 µg/mL
- MIC [3, 45]: 9.4 µg/mL
- MIC [4, 45]: 9.4 µg/mL
- MIC [6, 46]: 2.3 µg/mL
- MIC [7, 46]: 1.2 µg/mL
- MIC [8, 46]: 4.7 µg/mL
- MIC [9]: 18.7 µg/mL
- MIC [10]: 18.7 µg/mL
- MIC [11]: 37.5 µg/mL
- MIC [13]: 2.3 µg/mL
- MIC [14]: 2.3 µg/mL
- MIC [15]: 0.6 µg/mL
- MIC [16]: 0.6 µg/mL
- MIC [17]: 1.2 µg/mL
- MIC [18]: 0.6 µg/mL
- MIC [19]: lower than 2.3 µg/ml
- MIC [20]: 150 µg/mL
- MIC [21]: 9.4 µg/mL
- MIC [22]: 0.6 µg/mL
- MIC [23]: 0.3 µg/mL
- MIC [24]: 4.7 µg/mL
- MIC [25]: 2.3 µg/mL
- MIC [26]: 18.7 µg/mL
- MIC [27]: 9.4 µg/mL
- MIC [28]: 1.2 µg/mL
- MIC [29]: >100 µg/mL
- MIC [30]: >100 µg/mL
- MIC [31]: >100 µg/mL
- MIC [32]: >100 µg/mL
- MIC [33]: >100 µg/mL
- MIC [34]: >400 µg/mL
- MIC [35]: 75 µg/mL
- MIC [36]: 4.7 µg/mL
- MIC [37]: >400 µg/mL
- MIC [38]: >400 µg/mL
- MIC [39]: 9.4 µg/mL
- MIC [40]: >400 µg/mL
- MIC [41]: 1.2 µg/mL
- cytotoxicity [42]: neither cytotoxic
- cytotoxicity ([42]; listed as Cathelicidin-BF): No hemolytic and cytotoxic activity
- cytotoxicity [43]: neither cytotoxic
- cytotoxicity ([43]; listed as Cathelicidin-BF): No hemolytic and cytotoxic activity
- incubation time after which antimicrobial activities could not be detected [44]: 3 h
